Measured values as given in patent US20230266302A1, “SYNTHESIS AND USE OF N-BENZYL SULFONAMIDES” (THE UNIVERSITY OF TULSA, priority 2020, published 2023).

What was measured:
Experiment in all cases: Cytotoxicity testing, CellTiter-Blue assay (FIG. 9)
Format in all cases: cell-based
Conditions in all cases: 100 μM, 24 hour compound incubation, result in words
HeLa (cervical cancer) = system: HeLa (cervical cancer)
Procedure: (§1) The cytotoxicity tests were carried out in the following manner. Living cells are known to convert resazurin to the fluorescent compound resorufin. Test systems which rely upon this reaction are commercially available. One such test is known at the Cell Titer Blue Cell Viability test assay from Promega. Cell cultures for each of the identified cancer lines were obtained from ATCC and maintained in Dulbecco's Modified Eagle Medium (DMEM) supplemented with 10% fetal bovine serum (FBS) and pen/strep. As known to those skilled in the art, DMEM typically includes the components identified below.
(§2) The test method provides for incubating the cell cultures at 37° C. Additionally, the cell cultures are kept under an atmosphere containing 5% CO2. After allowing for proliferation of the cells, the cells were distributed across a plurality of test cells containing from 100 μL DMEM plus 10% FBS and allowed to attach to the surface of the cells. Typically, the time for attachment will require about 12 hours to about 18 hours. Following attachment, the cells were treated with either a solvent control or the N-benzyl sulfonamide compound of interest dissolved in a suitable solvent such as but not limited to DMSO. Typically, about 18 hours to about 36 hours are required to determine the effect of the N-benzyl sulfonamide compound of interest on cell viability. Following treatment of the cells with the N-benzyl sulfonamide or control, the toxicity of the compound to the cells will be determined by addition of 10 μl of CellTiter-Blue reagent, i.e. resazurin. Typically, the resazurin is added between about 18 hours to about 36 hours after treating the cells with the N-benzyl sulfonamides or the control. The cells are allowed to consume and convert the resazurin to resorufin for about one to four hours. Subsequently, the fluorescence of […] is measured by excitation at 560 nm and recording the emission at 590 nm within an instrument configured to measure fluorescence intensity. Two commercially available systems are the BioTek Cytation 5 plate reader and the Promega Glomax Multi+detection system. […] The method for determining IC50 values is well known in the art and will not be discussed further. As known to those skilled in the art, IC50 is a quantitative measure that indicates how much of a particular inhibitory substance (e.g. drug) is needed to inhibit, in vitro, a given biological process or biological component by 50%. Therefore, each N-benzyl sulfonamide will be tested over a range of concentrations. Typically, the concentration ranges will be: 6.25 μM, 12.5 μM, 25 μM, 50 μM, and 100 μM. The control in this method is normally dimethyl […] (DMSO) or other solvent suitable for dissolving the compounds to be tested. FIG. 8 depicts the % cell viability for the indicated compounds depicted in FIG. 7.
(§3) The Table of FIG. 9 provides the results of cytotoxicity testing a 100 μM concentration of compounds 2, 5-9, 11-12, 14, 16, 18-22 of FIG. 7 against the indicated cancer cell lines using CellTiter-Blue assay with 24 hour compound incubation time. FIG. 9 reflects the percent reduction in cell viability resulting from the treatment of the indicated cancer cell lines with the indicated compounds. As indicated by the boxed values in FIG. 9, compounds 2, 5, and 6 would be considered effective against H293. […] The Table of FIG. 10 provides a comparison of the IC50 values of select compounds from FIG. 7 to the IC50 values of two known anti-cancer sulfonamides, ABT-751 and Indisulam. As indicated by FIG. 10, the identified compounds performed remarkably better than the known anti-cancer agents. Thus, the identified compounds are expected to have greater anti-cancer potency.

[1] = system: MCF10A (non-cancerous breast)
Procedure: as §1, §2, §3

NCI-H196 (lung cancer) = system: NCI-H196 (lung cancer)
Procedure: as §1, §2, §3

Cc1ccc(S(=O)(=O)NCc2c[nH]c3cccc(Br)c23)cc1 [Compound 5, N-[(4-bromo-1H-indol-3-yl)methyl]-4-methylbenzenesulfonamide]
displayed effectiveness: percent reduction in cell viability, HeLa (HeLa (cervical cancer)) | percent reduction in cell viability, MCF10A [1] | percent reduction in cell viability, NCI-H196 (NCI-H196 (lung cancer))
